Measurements: patent US7880007B2, “Bicyclic substituted phenyl piperidine modulators of muscarinic receptors” (Vertex Pharmaceuticals Incorporated, priority 2004, dated 2011)

What was measured:
Assay type in all cases: cell-based
M4 muscarinic receptor = target: T1, M4 muscarinic receptor (Homo sapiens, UniProt P08173); assay: Functional mobilization of intracellular calcium (FLIPR), M4-CHO cells; conditions: for Emax: 100% efficacy = maximum response obtained with the Carbachol control; for M4 Activity: M4-CHO cells, calcium mobilization (FLIPR)
T1 construct: expressed in transfected cells; host or cells: CHO (M4-CHO)
T1 sequence (P08173 1-479): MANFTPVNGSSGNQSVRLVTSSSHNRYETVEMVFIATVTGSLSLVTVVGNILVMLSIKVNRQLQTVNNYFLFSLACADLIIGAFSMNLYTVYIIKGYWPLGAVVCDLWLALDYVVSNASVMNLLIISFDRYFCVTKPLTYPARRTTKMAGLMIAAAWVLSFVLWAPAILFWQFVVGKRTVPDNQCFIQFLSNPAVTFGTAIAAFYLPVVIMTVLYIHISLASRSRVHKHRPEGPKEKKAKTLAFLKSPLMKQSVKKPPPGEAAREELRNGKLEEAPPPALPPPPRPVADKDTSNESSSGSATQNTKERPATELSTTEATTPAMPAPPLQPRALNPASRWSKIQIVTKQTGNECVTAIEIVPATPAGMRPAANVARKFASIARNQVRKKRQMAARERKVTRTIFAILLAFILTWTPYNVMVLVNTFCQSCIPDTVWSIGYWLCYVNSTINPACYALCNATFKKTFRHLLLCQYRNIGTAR
How it was run: (§1)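 Calcium mobilisation read by FLIPR over 60 s (ex 488/em 540 nm) in recombinant muscarinic CHO lines loaded with calcium dye plus 1 mM probenecid. Compounds tested as agonists alone, or as inhibitors against EC80 carbachol after 15 min pre-incubation or co-addition; 0.5% DMSO; efficacy scaled to carbachol maximal response.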

M2 muscarinic receptor = target: T2, M2 muscarinic receptor (Homo sapiens, UniProt P08172); assay: Functional mobilization of intracellular calcium (FLIPR), M2-CHO cells; conditions: for Emax: 100% efficacy = maximum response obtained with the Carbachol control; for M2 Activity: M2-CHO cells, calcium mobilization (FLIPR)
T2 construct: expressed in transfected cells; host or cells: CHO (M2-CHO)
T2 sequence (P08172 1-466): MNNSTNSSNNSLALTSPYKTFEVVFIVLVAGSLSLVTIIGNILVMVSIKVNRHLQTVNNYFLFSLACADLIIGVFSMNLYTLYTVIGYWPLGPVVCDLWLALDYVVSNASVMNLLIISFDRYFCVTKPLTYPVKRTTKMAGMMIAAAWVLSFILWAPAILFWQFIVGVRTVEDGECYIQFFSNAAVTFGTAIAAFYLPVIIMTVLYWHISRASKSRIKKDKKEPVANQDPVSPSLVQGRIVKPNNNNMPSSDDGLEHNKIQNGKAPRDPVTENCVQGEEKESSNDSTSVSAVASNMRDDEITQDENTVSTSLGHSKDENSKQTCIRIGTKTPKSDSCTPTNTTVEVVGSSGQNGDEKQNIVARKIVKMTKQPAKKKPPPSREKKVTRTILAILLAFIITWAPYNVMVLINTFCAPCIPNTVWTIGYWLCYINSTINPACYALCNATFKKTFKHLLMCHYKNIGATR
How it was run: as §1

M1 muscarinic receptor = target: T3, M1 muscarinic receptor (Homo sapiens, UniProt P11229); assay: Functional mobilization of intracellular calcium (FLIPR), M1-CHO cells; conditions: for Emax: 100% efficacy = maximum response obtained with the Carbachol control; for M1 Activity: M1-CHO cells, calcium mobilization (FLIPR)
T3 construct: expressed in transfected cells; host or cells: CHO (M1-CHO)
T3 sequence (P11229 1-460): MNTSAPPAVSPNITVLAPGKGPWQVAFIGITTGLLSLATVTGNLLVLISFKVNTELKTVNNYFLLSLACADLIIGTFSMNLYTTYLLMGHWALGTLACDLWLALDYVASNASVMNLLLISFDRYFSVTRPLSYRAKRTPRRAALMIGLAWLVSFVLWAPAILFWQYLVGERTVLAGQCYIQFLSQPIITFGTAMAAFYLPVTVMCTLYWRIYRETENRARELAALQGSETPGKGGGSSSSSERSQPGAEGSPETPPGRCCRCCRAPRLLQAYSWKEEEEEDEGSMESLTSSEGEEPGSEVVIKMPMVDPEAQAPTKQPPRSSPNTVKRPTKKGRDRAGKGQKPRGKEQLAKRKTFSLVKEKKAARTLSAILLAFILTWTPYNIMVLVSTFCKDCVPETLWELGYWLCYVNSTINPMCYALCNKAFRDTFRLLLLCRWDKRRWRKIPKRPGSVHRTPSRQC
How it was run: as §1

M3 muscarinic receptor = target: T4, M3 muscarinic receptor (Homo sapiens, UniProt P20309); assay: Functional mobilization of intracellular calcium (FLIPR), M3-CHO cells; conditions: for Emax: 100% efficacy = maximum response obtained with the Carbachol control; for M3 Activity: M3-CHO cells, calcium mobilization (FLIPR)
T4 construct: expressed in transfected cells; host or cells: CHO (M3-CHO)
How it was run: as §1

T4 sequence (P20309 whole entry): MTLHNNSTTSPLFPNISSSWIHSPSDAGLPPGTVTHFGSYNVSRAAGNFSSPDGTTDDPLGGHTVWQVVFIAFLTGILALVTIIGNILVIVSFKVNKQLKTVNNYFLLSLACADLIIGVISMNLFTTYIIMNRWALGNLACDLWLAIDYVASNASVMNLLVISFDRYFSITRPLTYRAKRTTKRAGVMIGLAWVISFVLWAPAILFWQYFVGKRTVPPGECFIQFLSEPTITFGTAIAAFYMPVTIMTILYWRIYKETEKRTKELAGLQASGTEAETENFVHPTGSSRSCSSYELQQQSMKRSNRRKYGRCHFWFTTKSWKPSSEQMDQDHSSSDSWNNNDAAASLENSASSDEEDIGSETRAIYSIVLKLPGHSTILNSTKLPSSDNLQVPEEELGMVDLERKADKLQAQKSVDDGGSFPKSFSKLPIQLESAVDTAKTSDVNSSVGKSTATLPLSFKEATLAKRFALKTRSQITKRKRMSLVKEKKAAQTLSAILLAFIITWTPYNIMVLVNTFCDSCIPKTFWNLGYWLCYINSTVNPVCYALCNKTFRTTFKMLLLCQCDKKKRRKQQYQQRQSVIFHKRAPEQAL

Emax (M4 muscarinic receptor) [%]	Emax (M2 muscarinic receptor) [%]	Emax (M1 muscarinic receptor) [%]	Emax (M3 muscarinic receptor) [%]	Structure (SMILES)	M4 Activity (M4 muscarinic receptor)	M2 Activity (M2 muscarinic receptor)	M1 Activity (M1 muscarinic receptor)	M3 Activity (M3 muscarinic receptor)
25 to 100	< 25	< 25	< 25	O=C(COc1ccccc1C1CCN([C@H]2C[C@H]3CC[C@H]2C3)CC1)c1cccc(Cl)c1 [Compound 16]	++ (activity was measured to be from 1.0 μM to 5.0 μM)	+ (activity was measured to be greater than 5.0 μM)	+ (activity was measured to be greater than 5.0 μM)	+ (activity was measured to be greater than 5.0 μM)
25 to 100	25 to 100	25 to 100	< 25	COc1ccc(F)cc1C1CCN(C[C@H]2C[C@H]3C=C[C@H]2C3)CC1 [Compound 18]	+++ (activity was measured to be less than 1.0 μM)	+++ (activity was measured to be less than 1.0 μM)	+++ (activity was measured to be less than 1.0 μM)	+ (activity was measured to be greater than 5.0 μM)
25 to 100	< 25	25 to 100	< 25	CCC(=O)COc1ccccc1C1CCN([C@H]2C[C@H]3CC[C@H]2C3)CC1 [Compound 19]	+++ (activity was measured to be less than 1.0 μM)	+ (activity was measured to be greater than 5.0 μM)	++ (activity was measured to be from 1.0 μM to 5.0 μM)	+ (activity was measured to be greater than 5.0 μM)
< 25	< 25	< 25	< 25	COc1ccc(-c2ccc([S+](C)[O-])cc2)cc1C1CCN(C2CCOCC2)CC1 (stereo not drawn) [Compound 22]	+ (activity was measured to be greater than 5.0 μM)	+ (activity was measured to be greater than 5.0 μM)	+ (activity was measured to be greater than 5.0 μM)	+ (activity was measured to be greater than 5.0 μM)
25 to 100	< 25	25 to 100	< 25	CC(C)Oc1ccccc1C1CCN([C@H]2C[C@H]3CC[C@H]2C3)CC1 [Compound 26]	+++ (activity was measured to be less than 1.0 μM)	+ (activity was measured to be greater than 5.0 μM)	++ (activity was measured to be from 1.0 μM to 5.0 μM)	+ (activity was measured to be greater than 5.0 μM)
25 to 100	25 to 100	25 to 100	< 25	COc1ccc(Cl)cc1C1CCN(C2CC3CCC(C3)C2)CC1 (stereo not drawn) [Compound 27]	+++ (activity was measured to be less than 1.0 μM)	++ (activity was measured to be from 1.0 μM to 5.0 μM)	++ (activity was measured to be from 1.0 μM to 5.0 μM)	+ (activity was measured to be greater than 5.0 μM)
25 to 100	< 25	25 to 100	< 25	FC(F)(F)c1ccccc1C1CCN(C2C[C@H]3CC[C@H]2C3)CC1 (stereo partly drawn) [Compound 32]				
25 to 100	< 25	25 to 100	< 25	COc1cc(F)ccc1C1CCN([C@@H]2C[C@H]3CC[C@H]2C3)CC1 [Compound 35]	+++ (activity was measured to be less than 1.0 μM)	+ (activity was measured to be greater than 5.0 μM)	+ (activity was measured to be greater than 5.0 μM)	+ (activity was measured to be greater than 5.0 μM)

Second part, the compound before the results:

Structure (SMILES)	Emax (M4 muscarinic receptor) [%]	Emax (M2 muscarinic receptor) [%]	Emax (M1 muscarinic receptor) [%]	Emax (M3 muscarinic receptor) [%]	M4 Activity (M4 muscarinic receptor)	M2 Activity (M2 muscarinic receptor)	M1 Activity (M1 muscarinic receptor)	M3 Activity (M3 muscarinic receptor)
COc1ccc(-c2ccc(C(=O)N3CCCC3)cc2)cc1C1CCN([C@H]2C[C@H]3CC[C@H]2C3)CC1 [Compound 17]	25 to 100	< 25	< 25	< 25	++ (activity was measured to be from 1.0 μM to 5.0 μM)	+ (activity was measured to be greater than 5.0 μM)	+ (activity was measured to be greater than 5.0 μM)	+ (activity was measured to be greater than 5.0 μM)
Cc1ccccc1C1CCN([C@H]2C[C@H]3CC[C@H]2C3)CC1 [Compound 24]	25 to 100	25 to 100	25 to 100	< 25	+++ (activity was measured to be less than 1.0 μM)	++ (activity was measured to be from 1.0 μM to 5.0 μM)	++ (activity was measured to be from 1.0 μM to 5.0 μM)	+ (activity was measured to be greater than 5.0 μM)
COc1ccccc1C1(O)CCN(C2CC3CCC2C3)CC1 (stereo not drawn) [Compound 25]	< 25	< 25	< 25		+ (activity was measured to be greater than 5.0 μM)	+ (activity was measured to be greater than 5.0 μM)	+ (activity was measured to be greater than 5.0 μM)	+ (activity was measured to be greater than 5.0 μM)
COc1ccccc1C1(O)CCN(CC2CC3C=CC2C3)CC1 (stereo not drawn) [Compound 29]	25 to 100	< 25	25 to 100		++ (activity was measured to be from 1.0 μM to 5.0 μM)	+ (activity was measured to be greater than 5.0 μM)	+ (activity was measured to be greater than 5.0 μM)	+ (activity was measured to be greater than 5.0 μM)
CCOC(=O)N1CCC(N2CCC(O)(c3cc(Cl)ccc3OC)CC2)CC1 [Compound 31]	25 to 100	< 25	25 to 100	< 25	+++ (activity was measured to be less than 1.0 μM)	+ (activity was measured to be greater than 5.0 μM)	++ (activity was measured to be from 1.0 μM to 5.0 μM)	+ (activity was measured to be greater than 5.0 μM)
CCOC(=O)N1C2CCC1CC(N1CCC(c3cc(-c4ccc(C(C)(C)C#N)cc4)ccc3OC)CC1)C2 (stereo not drawn) [Compound 33]	25 to 100	< 25	25 to 100	< 25	++ (activity was measured to be from 1.0 μM to 5.0 μM)	+ (activity was measured to be greater than 5.0 μM)	++ (activity was measured to be from 1.0 μM to 5.0 μM)	+ (activity was measured to be greater than 5.0 μM)
COc1ccccc1C1CCN(C2CC(C)CC(C)C2)CC1 (stereo not drawn) [Compound 34]	< 25	< 25	< 25	< 25	+ (activity was measured to be greater than 5.0 μM)	+ (activity was measured to be greater than 5.0 μM)	+ (activity was measured to be greater than 5.0 μM)	+ (activity was measured to be greater than 5.0 μM)
